Source: US11999713B2, “Methionine adenosyltransferase 2a (MAT2A) inhibitors and uses thereof” (Insilico Medicine IP Limited, priority 2021, dated 2024)

Biological target: MAT2A (Homo sapiens, UniProt P31153)
Experiment: MAT2A Biochemical Assay
Settings: 1 uM start, 3-fold dilution, 10 doses; Biomol Green, O.D.620; read-out: MAT2A enzymatic IC50
Experimental: Example A: MAT2A Biochemical Assay
Compounds described herein were tested as follows:
(1). Prepared 1× Assay buffer.
(2). Preparation of compound concentration gradient: the compounds test condition were 1 uM start, 3-fold dilution, 10 doses, singlet or duplicate. 100× concentration compounds were prepared in 384-well plate. Then used Echo 550 to transfer 250 nl to a 384-reaction plate for later use. Added 250 nl of 100% DMSO to the negative and positive control wells.
(3). Prepared 1.67× final concentration enzyme solution with 1× Assay buffer.
(4). Added 15 μl of 1.67× Enzyme solution to the compound wells and positive control wells; added 15 μl of 1× Assay buffer to the negative control wells.
(5). Centrifuged at 1000 rpm for 30 seconds and incubate for 15 minutes.
(6). Prepared 2.5× final concentration Substrate mix solution with 1× Assay buffer.
(7). Added 10 μl of 2.5× final concentration Substrate mix solution to start the reaction.
(8). Centrifuged at 1000 rpm for 30 seconds and incubate for 150 minutes.
(9). Added 50 μl Biomol Green to stop the reaction, centrifuge at 1000 rpm for 30 seconds and incubate for 15 minutes, read O.D.620, process data.
(1) Using GraphPad Prism 5.
(2) % Inh=(Max signal−Compound signal)/(Max signal−Min signal)*100.
(3) Max signal was obtained from the positive control wells.
(4) Min signal was obtained from the negative control wells.

Sequence of MAT2A (P31153 whole entry, species assumed): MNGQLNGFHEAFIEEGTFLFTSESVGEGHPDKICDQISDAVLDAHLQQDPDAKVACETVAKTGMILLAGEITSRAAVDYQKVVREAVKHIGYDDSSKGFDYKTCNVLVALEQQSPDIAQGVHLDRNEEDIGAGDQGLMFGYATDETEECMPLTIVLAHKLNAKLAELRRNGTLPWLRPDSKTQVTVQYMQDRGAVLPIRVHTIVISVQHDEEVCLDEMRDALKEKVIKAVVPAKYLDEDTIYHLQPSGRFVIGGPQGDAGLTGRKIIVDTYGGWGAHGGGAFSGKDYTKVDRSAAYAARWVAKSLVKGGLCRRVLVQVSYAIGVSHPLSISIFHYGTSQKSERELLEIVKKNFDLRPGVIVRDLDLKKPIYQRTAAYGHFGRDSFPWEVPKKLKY

| Structure (SMILES) | IC50 [nM] |
| --- | --- |
| CN(C)CC#CCNc1nc(=O)n(-c2cccnc2)c2cc(Cl)ccc12 [Example 3, 7-chloro-4-((4-(dimethylamino)but-2-yn-1-yl)amino)-1-(pyridin-3-yl)quinazolin-2(1H)-one] | 50 to 100 |
| C#CCOc1nc(=O)n(-c2cccnc2)c2cc(Cl)ccc12 [Example 9, 7-chloro-4-(prop-2-yn-1-yloxy)-1-(pyridin-3-yl)quinazolin-2(1H)-one] | 100 to 500 |
| C#CC1CCCN(c2nc(=O)n(-c3ccccc3Cl)c3cc(Cl)ccc23)C1 (stereo not drawn) [Example 11, 7-chloro-1-(2-chlorophenyl)-4-(3-ethynylpiperidin-1-yl)quinazolin-2(1H)-one] | 100 to 500 |
| C#CC1(O)CN(c2nc(=O)n(-c3ccccc3Cl)c3cc(Cl)ccc23)C1 [Example 12, 7-chloro-1-(2-chlorophenyl)-4-(3-ethynyl-3-hydroxyazetidin-1-yl)quinazolin-2(1H)-one] | 100 to 500 |
| C#CCNc1nc(=O)n(-c2cnccn2)c2cc(C(F)(F)F)cc(F)c12 [Example 32, 5-fluoro-4-(prop-2-yn-1-ylamino)-1-(pyrazin-2-yl)-7-(trifluoromethyl)quinazolin-2(1H)-one] | 50 to 100 |
| C#CCNc1nc(=O)n(-c2cccnc2)c2cc(C(F)(F)F)cc(OC(F)F)c12 [Example 39, 5-(difluoromethoxy)-4-(prop-2-yn-1-ylamino)-1-(pyridin-3-yl)-7-(trifluoromethyl)quinazolin-2(1H)-one] | 50 to 100 |
| C#CC1(Nc2nc(=O)n(-c3cccnc3C)c3cc(C(F)(F)F)cc(OC(F)F)c23)CC1 [Example 41, 5-(difluoromethoxy)-4-((1-ethynylcyclopropyl)amino)-1-(2-methylpyridin-3-yl)-7-(trifluoromethyl)quinazolin-2(1H)-one] | 50 to 100 |
| C#CC1(Nc2nc(=O)n(-c3cccnc3C)c3nc(C(F)(F)F)cc(OC)c23)CC1 [Example 43, 4-((1-ethynylcyclopropyl)amino)-5-methoxy-1-(2-methylpyridin-3-yl)-7-(trifluoromethyl)pyrido[2,3-d]pyrimidin-2(1H)-one] | 50 to 100 |
| C#CCNc1nc(=O)n(-c2cc(C)cnc2C)c2cc(C(F)(F)F)ccc12 [Example 44, 1-(2,5-dimethylpyridin-3-yl)-4-(prop-2-yn-1-ylamino)-7-(trifluoromethyl)quinazolin-2(1H)-one] | 100 to 500 |
| C#CCNc1nc(=O)n(-c2cccnc2)c2cc(C(F)(F)F)cnc12 [Example 55, 4-(prop-2-yn-1-ylamino)-1-(pyridin-3-yl)-7-(trifluoromethyl)pyrido[3,2-d]pyrimidin-2(1H)-one] | 500 to 1000 |
| C#CCNc1nc(=O)n(-c2cccnc2)c2cc(C(F)(F)F)ncc12 [Example 58, 4-(prop-2-yn-1-ylamino)-1-(pyridin-3-yl)-7-(trifluoromethyl)pyrido[4,3-d]pyrimidin-2(1H)-one] | 100 to 500 |
| C#CC(C)Nc1nc(=O)n(-c2cccnc2)c2cc(C(F)(F)F)ncc12 (stereo not drawn) [Example 59, 4-(but-3-yn-2-ylamino)-1-(pyridin-3-yl)-7-(trifluoromethyl)pyrido[4,3-d]pyrimidin-2(1H)-one] | 100 to 500 |
| C#CC1(Nc2nc(=O)n(-c3cccnc3)c3cc(C(F)(F)F)ncc23)CC1 [Example 60, 4-((1-ethynylcyclopropyl)amino)-1-(pyridin-3-yl)-7-(trifluoromethyl)pyrido[4,3-d]pyrimidin-2(1H)-one] | 100 to 500 |
| C#CC1(Nc2nc(=O)n(-c3cccnc3)c3nc(C(F)(F)F)ncc23)CC1 [Example 62, 4-((1-ethynylcyclopropyl)amino)-1-(pyridin-3-yl)-7-(trifluoromethyl)pyrimido[4,5-d]pyrimidin-2(1H)-one] | 50 to 100 |
| C#CCNc1nc(=O)n(-c2cncnc2)c2cc(Cl)ccc12 [Example 71, 7-chloro-4-(prop-2-yn-1-ylamino)-1-(pyrimidin-5-yl)quinazolin-2(1H)-one] | 100 to 500 |
| C#CCNc1nc(=O)n(-c2cnn(C)c2)c2cc(C(F)(F)F)ccc12 [Example 72, 1-(1-methyl-1H-pyrazol-4-yl)-4-(prop-2-yn-1-ylamino)-7-(trifluoromethyl)quinazolin-2(1H)-one] | 100 to 500 |
| C=CC1(Nc2nc(=O)n(-c3cccnc3C)c3cc(C(F)(F)F)cc(OC)c23)CC1 [Example 78] | 50 to 100 |
| NC/C=C/CNc1nc(=O)n(-c2cccnc2)c2cc(C(F)(F)F)ccc12 [Example 79, (E)-4-((4-aminobut-2-en-1-yl)amino)-1-(pyridin-3-yl)-7-(trifluoromethyl)quinazolin-2(1H)-one] | 100 to 500 |
